These results are taken from ChEMBL document CHEMBL1201862, “PubChem BioAssay data set” (2004).

Molecules are shown by their SMILES.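 The compound was tested at five concentrations on cells cultured in 96-well plates, with a 48-hour exposure period. GI50: concentration for 50% inhibition of growth.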 The source made the active and inactive calls. Rule as the data show it: active = GI50 up to about 1.1 µM and inactive = higher.

Among the test systems are HCT-15; M14; HCC 2998; PC-3; A549; OVCAR-3; EKVX; BT-549; RXF 393; SK-MEL-2; NCI-H460; LOX IMVI; Hs-578T; U-251; CAKI-1; SNB-75; HOP-92; MCF7; OVCAR-5.
Experiment in all cases: NCI tumour cell line growth inhibition, 48 h

As for `CC1C(=NO)C(C)C(c2ccccc2)N(N=O)C1c1ccccc1` (centres undefined), the GI50 was 16.6 µM with HCT-15; 16 µM (inactive) with M14; 18.4 µM (inactive) in the assay on HCC 2998; 25.4 µM (inactive) in the assay on PC-3; 17.8 µM (inactive) in the assay with A549; 25.2 µM (inactive) in the assay on OVCAR-3. For the same compound, the GI50 was 22.9 µM (inactive) in the assay on EKVX; 22.9 µM (inactive) in the assay on BT-549; 17.1 µM (inactive) in the assay with RXF 393; 18.7 µM (inactive) in the assay with SK-MEL-2; 16 µM (inactive) in the assay with NCI-H460; 15.9 µM (inactive) with LOX IMVI. For the same compound, the GI50 is 16.4 µM (inactive) in the assay on Hs-578T; 17.7 µM (inactive) in the assay with U-251; > 10 µM (inactive) in the assay with CAKI-1; 25.1 µM (inactive) with SNB-75; 19.7 µM (inactive) in the assay with HOP-92; 37.9 µM (inactive) with MCF7.
Regarding `COc1ccc2c(c1)CCN=C2c1ccccc1CCCCl`, the GI50 was 23.6 µM in the assay with HCT-15; 46.8 µM (inactive) with OVCAR-5; 29.3 µM (inactive) in the assay with M14; 6.25 µM (inactive) with HCC 2998; 17 µM (inactive) in the assay on PC-3; 24.2 µM (inactive) with A549. Also, the GI50 with OVCAR-3 was 46.1 µM (inactive); with EKVX, 17.7 µM (inactive); with BT-549 it was 38.5 µM (inactive); with RXF 393, 22.6 µM (inactive); in the assay with SK-MEL-2, 28 µM (inactive); in the assay with NCI-H460, 13.6 µM (inactive). Moreover, the GI50 in the assay on Hs-578T was 16.5 µM (inactive); with U-251, 71.6 µM (inactive); with CAKI-1, 24.4 µM (inactive); in the assay with SNB-75 it was 17.3 µM (inactive); with HOP-92, 26.7 µM (inactive); with MCF7, 23.1 µM (inactive).
As for `CC(/C=N/N(C)C1=NCCCCN1)=N/N(C)C1=NCCCCN1`, the GI50 is over 100 µM in the assay with HCT-15; > 100 µM (inactive) with OVCAR-5; > 100 µM (inactive) in the assay with HCC 2998; > 100 µM (inactive) with PC-3; > 100 µM (inactive) in the assay with A549; > 100 µM (inactive) with OVCAR-3. For the same compound, the GI50 in the assay on EKVX, in the assay with BT-549, in the assay on RXF 393, with SK-MEL-2, in the assay on NCI-H460 and in the assay on LOX IMVI was > 100 µM (inactive) in each case. For the same compound, the GI50 in the assay on Hs-578T, in the assay with U-251, in the assay with CAKI-1, with SNB-75, in the assay on HOP-92 and in the assay with MCF7 was > 100 µM (inactive) throughout.
Turning to `COc1ccc(C2=C(Cl)C(=O)N(c3ccc(OC)cc3OC)C(=O)C2(Cl)Cl)cc1`, the GI50 in the assay with HCT-15 is 14.2 µM; in the assay on OVCAR-5, 14.4 µM (inactive); with M14, 14.6 µM (inactive); in the assay on PC-3 it was 13.2 µM (inactive); in the assay on A549, > 100 µM (inactive); with OVCAR-3 it was 12.5 µM (inactive). Also, the GI50 in the assay with EKVX was 32.8 µM (inactive); in the assay on BT-549, 18.8 µM (inactive); in the assay on RXF 393, 17.9 µM (inactive); in the assay on SK-MEL-2, 20.9 µM (inactive); with NCI-H460, 45.2 µM (inactive); in the assay with LOX IMVI, 14.7 µM (inactive). The GI50 was < 0.01 µM (active) in the assay on Hs-578T; 16.6 µM (inactive) in the assay with U-251; 11.9 µM (inactive) in the assay on CAKI-1; 22.9 µM (inactive) in the assay on SNB-75; 9.77 µM (inactive) in the assay with HOP-92; 21 µM (inactive) in the assay with MCF7.
As for `COC(=O)C(C)(NC(=O)C(CC(=O)OC(C)(C)C)NC(=O)OC(C)(C)C)c1ccccc1` (centres undefined), the GI50 is over 100 µM in the assay with HCT-15; > 100 µM (inactive) in the assay on OVCAR-5; > 100 µM (inactive) in the assay with M14; > 100 µM (inactive) with HCC 2998; > 100 µM (inactive) with PC-3; > 100 µM (inactive) in the assay with A549. For the same compound, the GI50 in the assay with OVCAR-3 was 49.8 µM (inactive); in the assay with EKVX, > 100 µM (inactive); in the assay with BT-549 it was > 100 µM (inactive); with RXF 393, > 100 µM (inactive); in the assay with NCI-H460, 85.7 µM (inactive); in the assay on LOX IMVI, > 100 µM (inactive). Further, the GI50 with Hs-578T was > 100 µM (inactive); in the assay with U-251, > 100 µM (inactive); in the assay with CAKI-1, > 100 µM (inactive); in the assay with SNB-75 it was 8.13 µM (inactive); in the assay with HOP-92, 63 µM (inactive); in the assay with MCF7, 62.1 µM (inactive).
Turning to `COc1ccc2c(=O)c3c([nH]c2c1)OCC3=O`, the GI50 in the assay on HCT-15 was over 100 µM; in the assay with M14, > 100 µM (inactive); in the assay on HCC 2998 it was > 100 µM (inactive); with PC-3 it was > 100 µM (inactive); in the assay with EKVX, > 100 µM (inactive); with BT-549, > 100 µM (inactive). The GI50 in the assay on RXF 393, in the assay with SK-MEL-2, with NCI-H460, with LOX IMVI, in the assay on Hs-578T and in the assay on U-251 was > 100 µM (inactive) each time. For the same compound, the GI50 with CAKI-1, in the assay with SNB-75, with HOP-92 and with MCF7 was > 100 µM (inactive) throughout.
For `Cc1ccc2nc(-n3c(/C=C/c4ccccc4O)nc4ccccc4c3=O)sc2c1`, the GI50 in the assay with HCT-15 is over 100 µM; in the assay on OVCAR-5, > 100 µM (inactive); in the assay on M14 it was > 100 µM (inactive); with HCC 2998 it was > 100 µM (inactive); in the assay on PC-3, > 100 µM (inactive); with A549, > 100 µM (inactive). In addition, the GI50 was > 100 µM (inactive) in the assay on OVCAR-3; 19.8 µM (inactive) with EKVX; > 100 µM (inactive) in the assay with BT-549; > 100 µM (inactive) with RXF 393; > 100 µM (inactive) in the assay on SK-MEL-2; > 100 µM (inactive) in the assay with NCI-H460. For the same compound, the GI50 in the assay with LOX IMVI, in the assay on Hs-578T, in the assay on U-251, with CAKI-1, in the assay with SNB-75 and in the assay with HOP-92 was > 100 µM (inactive) each time. Also, the GI50 in the assay with MCF7 is > 100 µM (inactive).
`COC(NC(=O)Nc1ccccc1C)(C(F)(F)F)C(F)(F)F`: the GI50 in the assay with OVCAR-5 is > 100 µM (inactive); in the assay with M14 it was > 100 µM (inactive); in the assay on HCC 2998, > 100 µM (inactive); with PC-3 it was 56.4 µM (inactive); in the assay on A549 it was > 100 µM (inactive); in the assay with OVCAR-3, > 100 µM (inactive). In addition, the GI50 was 94.4 µM (inactive) in the assay on BT-549; 1.21 µM (inactive) with RXF 393; > 100 µM (inactive) with NCI-H460; > 100 µM (inactive) with LOX IMVI; > 100 µM (inactive) in the assay on Hs-578T; 34.5 µM (inactive) in the assay on U-251. In addition, the GI50 in the assay with SNB-75, in the assay with HOP-92 and with MCF7 was > 100 µM (inactive) throughout.
For the compound `CS(=N)(=O)CCC(N)P(=O)(O)O` (centres undefined), the GI50 in the assay on HCT-15 is over 100 µM; in the assay with OVCAR-5, > 100 µM (inactive); in the assay with M14, > 100 µM (inactive); with HCC 2998, > 100 µM (inactive); with PC-3, > 100 µM (inactive); with A549 it was > 100 µM (inactive). Besides, the GI50 in the assay with OVCAR-3, in the assay on EKVX, in the assay on BT-549, in the assay with RXF 393, with SK-MEL-2 and with NCI-H460 was > 100 µM (inactive) in each case. Moreover, the GI50 in the assay on LOX IMVI, in the assay with Hs-578T, in the assay on U-251, in the assay with CAKI-1, in the assay on HOP-92 and in the assay on MCF7 was > 100 µM (inactive) each time.
As for `C/C(=N\Nc1nc2cc(F)ccc2s1)c1ccccn1`, the GI50 in the assay with HCT-15 was under 0.022 µM; in the assay on OVCAR-5, 0.716 µM (active); in the assay on M14, 0.0171 µM (active); with HCC 2998, 1.92 µM (inactive); in the assay on PC-3 it was 0.0395 µM (active); in the assay on A549, 0.26 µM (active). In addition, the GI50 with OVCAR-3 was 0.0284 µM (active); in the assay with EKVX, < 0.0141 µM (active); in the assay on BT-549 it was 1.19 µM (inactive); in the assay on RXF 393 it was 1.26 µM (inactive); with SK-MEL-2 it was 1.54 µM (inactive); in the assay with NCI-H460, 0.0412 µM (active). Besides, the GI50 is 0.335 µM (active) in the assay on Hs-578T; 0.0402 µM (active) with U-251; < 0.01 µM (active) in the assay on CAKI-1; 0.661 µM (active) in the assay on SNB-75; 0.0352 µM (active) in the assay with HOP-92; 0.0199 µM (active) in the assay with MCF7.
As for `CC(C)(S)C(N)C(=O)O` (stereo not drawn) [DL-PENICILLAMINE], the GI50 in the assay with HCT-15 is over 100 µM; in the assay on OVCAR-5, > 100 µM (inactive); in the assay with M14, > 100 µM (inactive); in the assay on PC-3, > 100 µM (inactive); with A549, > 100 µM (inactive); with OVCAR-3, > 100 µM (inactive). Besides, the GI50 in the assay on EKVX, with BT-549, in the assay on RXF 393, with SK-MEL-2, in the assay on NCI-H460 and with LOX IMVI was > 100 µM (inactive) each time. Moreover, the GI50 in the assay with Hs-578T, with U-251, in the assay with CAKI-1, in the assay with SNB-75, in the assay with HOP-92 and with MCF7 was > 100 µM (inactive) each time.
